Assays:
[1] = system: K. pneumoniae ATCC 10031 (SEN) and K. pneumoniae ATCC 700603 (MDR); test: Adaptive laboratory evolution (ALE), relative MIC of evolved lines; assay type: cell-based, Klebsiella pneumoniae
Source text: Using the same set of bacterial strains, we initiated adaptive laboratory evolution with the aim to maximize the level of antibiotic resistance in the populations achieved during a longer, but fixed time period.
An established protocol for adaptive laboratory evolution[46],[73] was followed to propagate populations with the highest resistance levels. Starting with an antibiotic concentration that caused approximately 50% growth inhibition, ten parallel populations for each antibiotic-ancestor strain combination were grown for 72 hours at 37 °C with continuous shaking (300 RPM). MHB broth medium was used unless stated otherwise. After each incubation, 20 µl of each culture was transferred to four new wells containing fresh medium with increasing antibiotic concentrations (0.5×, 1×, 1.5×, and 2.5× the previous concentration) in a chessboard layout to monitor potential cross-contamination. Growth was monitored by measuring OD600 using a Biotek Synergy 2 microplate reader, and only populations grown in the highest drug concentration with an OD600 > 0.2 were transferred further.
A robotic liquid handling system was used to automatically prepare a 11 to 16-step serial dilution in 384-well microtiter plates (Greiner). A final concentration of 5 × 10^5 bacterial cells per mL were inoculated into each well containing 60 µL MHB medium. Bacterial cultures were incubated at 37 °C with continuous shaking (Infors shaker, 900 rpm with 3 mm throw) for 18 hours (2 replicates from each). Cell growth was monitored by measuring the optical density (OD600 values, using Biotek Synergy microplate reader). MIC was defined as the antibiotic concentration of complete growth inhibition (i.e., OD600 < 0.05). Relative MIC was calculated as follows:1 relativeMIC=MICevolved/MICancestor […]
Supplementary Figure 4. Resistance levels following adaptive laboratory evolution across bacterial strains. The level of resistance was measured as the fold change in relative MIC between evolved and ancestral strains after ~60 days of adaptive laboratory evolution. Data are grouped by bacterial strain (A. baumannii (AB), E. coli (EC), K. pneumoniae (KP), and P. aeruginosa (PA)) and categorized as either multidrug-resistant (MDR) or sensitive (SEN). Each data point represents a laboratory evolved line, and boxplots show the median, first and third quartiles, with whiskers indicating the 5th and 95th percentiles.
Statistical analysis was performed using two-sided Dunn’s post-hoc test with Benjamini-Hochberg correction for multiple comparisons (****/ ***/ **/ * indicates p < 0.0001/ 0.001/ 0.01/ 0.05). For detailed information on antibiotic and bacterial species, see Supplementary Table 1. For mode of action groups, refer to Table 1. Source data are provided as a Source Data file.

[2] = system: A. baumannii ATCC 17978 (SEN) and A. baumannii ATCC BAA-1605 (MDR); test: microbe, parasite or virus in culture; assay type: cell-based, Acinetobacter baumannii; details: for MIC of ancestor: ancestor strain; for MIC: Acinetobacter baumannii, across three biological replicates
Procedure: (§1) This study focused on multiple bacterial strains, as follows. For the FoR and ALE experiments, 2 strains per species were chosen: E. coli ATCC 25922, K. pneumoniae ATCC 10031, A. baumannii ATCC 17978, and P. aeruginosa ATCC BAA-3107 as sensitive (SEN) strains, and E. coli NCTC13846, K. pneumoniae ATCC 700603, A. baumannii ATCC BAA-1605 and P. aeruginosa LESB58 as multi-drug resistant (MDR) strains. Functional metagenomic screens were performed with E. coli ATCC 25922 and K. pneumoniae ATCC 10031 strains. To determine the dose-kill properties of the different antibiotics, an E. coli strain (ATCC 25922) expressing a yellow fluorescent protein (pZS2R, YFP, CHL^R) and a red fluorescent protein (pZS2R, mCherry, CHL^R) was used.
(§2) Unless otherwise indicated, cation-adjusted Mueller-Hinton Broth 2 (MHB, Millipore) medium was used throughout the study, except for SCH79797 (SCH).
(§3) A robotic liquid handling system was used to automatically prepare a 11 to 16-step serial dilution in 384-well microtiter plates (Greiner). A final concentration of 5 × 10^5 bacterial cells per mL were inoculated into each well containing 60 µL MHB medium. Bacterial cultures were incubated at 37 °C with continuous shaking (Infors shaker, 900 rpm with 3 mm throw) for 18 hours (2 replicates from each). Cell growth was monitored by measuring the optical density (OD600 values, using Biotek Synergy microplate reader). MIC was defined as the antibiotic concentration of complete growth inhibition (i.e., OD600 < 0.05). Relative MIC was calculated as follows:1 relativeMIC=MICevolved/MICancestor

[3] = system: P. aeruginosa ATCC BAA-3107 (SEN) and P. aeruginosa LESB58 (MDR); test: microbe, parasite or virus in culture; assay type: cell-based, Pseudomonas aeruginosa; details: for MIC of ancestor: ancestor strain; for MIC: Pseudomonas aeruginosa, across three biological replicates
Procedure: as §1, §2, §3

[4] = KP-SEN (ATCC 10031), evolved line 1, MIC of evolved line / MIC of ancestor
[5] = KP-SEN (ATCC 10031), evolved line 2, MIC of evolved line / MIC of ancestor
[6] = KP-SEN (ATCC 10031), evolved line 3, MIC of evolved line / MIC of ancestor
[7] = KP-SEN (ATCC 10031), evolved line 4, MIC of evolved line / MIC of ancestor
[8] = KP-SEN (ATCC 10031), evolved line 5, MIC of evolved line / MIC of ancestor
[9] = KP-SEN (ATCC 10031), evolved line 6, MIC of evolved line / MIC of ancestor
[10] = KP-SEN (ATCC 10031), evolved line 7, MIC of evolved line / MIC of ancestor
[11] = KP-SEN (ATCC 10031), evolved line 8, MIC of evolved line / MIC of ancestor
[12] = KP-SEN (ATCC 10031), evolved line 9, MIC of evolved line / MIC of ancestor
[13] = KP-SEN (Klebsiella pneumoniae ATCC 10031), evolved line 8 adapted to the named antibiotic
[14] = KP-SEN (Klebsiella pneumoniae ATCC 10031), evolved line 9 adapted to the named antibiotic
[15] = Klebsiella pneumoniae ATCC 10031 (KP-SEN), evolved line 1
[16] = Klebsiella pneumoniae ATCC 10031 (KP-SEN), evolved line 2
[17] = Klebsiella pneumoniae ATCC 10031 (KP-SEN), evolved line 3
[18] = Klebsiella pneumoniae ATCC 10031 (KP-SEN), evolved line 4
[19] = Klebsiella pneumoniae ATCC 10031 (KP-SEN), evolved line 5
[20] = Klebsiella pneumoniae ATCC 10031 (KP-SEN), evolved line 6
[21] = Klebsiella pneumoniae ATCC 10031 (KP-SEN), evolved line 7
[22] = Klebsiella pneumoniae ATCC 10031 (KP-SEN), evolved line 8
[23] = Klebsiella pneumoniae ATCC 10031 (KP-SEN), evolved line 9
[24] = Acinetobacter baumannii ATCC 17978 (AB-SEN)
[25] = Acinetobacter baumannii ATCC 17978 (AB-SEN), sheet fig 2a
[26] = Acinetobacter baumannii ATCC BAA-1605 (AB-MDR)
[27] = Pseudomonas aeruginosa ATCC BAA 3107 (PA-SEN)
[28] = ATCCBAA3107, Pseudomonas aeruginosa ATCC BAA-3107 (PA-SEN)
[29] = ATCCBAA3107, Pseudomonas aeruginosa LESB 58 (PA-MDR)

Nc1nc(-n2cc(C(=O)O)c(=O)c3cc(F)c(N4CC(O)C4)c(Cl)c32)c(F)cc1F [Delafloxacin]
Relative MIC ([1]; KP-MDR (ATCC 700603), evolved line 2, MIC of evolved line / MIC of ancestor): 64
Relative MIC ([1]; KP-MDR (ATCC 700603), evolved line 3, MIC of evolved line / MIC of ancestor): 16
Relative MIC ([1]; KP-MDR (ATCC 700603), evolved line 4, MIC of evolved line / MIC of ancestor): 32
Relative MIC ([1]; KP-MDR (ATCC 700603), evolved line 5, MIC of evolved line / MIC of ancestor): 32
Relative MIC ([1]; KP-MDR (ATCC 700603), evolved line 6, MIC of evolved line / MIC of ancestor): 128
Relative MIC ([1]; KP-MDR (ATCC 700603), evolved line 7, MIC of evolved line / MIC of ancestor): 128
Relative MIC ([1]; KP-MDR (ATCC 700603), evolved line 8, MIC of evolved line / MIC of ancestor): 64
Relative MIC ([1]; KP-MDR (ATCC 700603), evolved line 9, MIC of evolved line / MIC of ancestor): 64
Relative MIC ([1]; KP-MDR (ATCC 700603), evolved line 10, MIC of evolved line / MIC of ancestor): 64
Relative MIC (log10) ([1]; KP-MDR (Klebsiella pneumoniae ATCC 700603), evolved line 2 adapted to the named antibiotic): 1.806
Relative MIC (log10) ([1]; KP-MDR (Klebsiella pneumoniae ATCC 700603), evolved line 6 adapted to the named antibiotic): 2.107
Relative MIC (log10) ([1]; KP-MDR (Klebsiella pneumoniae ATCC 700603), evolved line 7 adapted to the named antibiotic): 2.107
Relative MIC (log10) ([1]; KP-MDR (Klebsiella pneumoniae ATCC 700603), evolved line 8 adapted to the named antibiotic): 1.806
Relative MIC (log10) ([1]; KP-MDR (Klebsiella pneumoniae ATCC 700603), evolved line 10 adapted to the named antibiotic): 1.806
Relative MIC [1, 4]: 16384
Relative MIC [1, 5]: 8192
Relative MIC [1, 6]: 16384
Relative MIC [1, 7]: 8192
Relative MIC [1, 8]: 16384
Relative MIC [1, 9]: 16384
Relative MIC [1, 10]: 8192
Relative MIC [1, 11]: 65536
Relative MIC [1, 12]: 65536
Relative MIC (log10) ([1]; KP-SEN (Klebsiella pneumoniae ATCC 10031), evolved line 1 adapted to the named antibiotic): 4.214
Relative MIC (log10) ([1]; KP-SEN (Klebsiella pneumoniae ATCC 10031), evolved line 3 adapted to the named antibiotic): 4.214
Relative MIC (log10) ([1]; KP-SEN (Klebsiella pneumoniae ATCC 10031), evolved line 7 adapted to the named antibiotic): 3.913
Relative MIC (log10) [1, 13]: 4.816
Relative MIC (log10) [1, 14]: 4.816
Relative MIC [1, 15]: 16384
Relative MIC [1, 16]: 8192
Relative MIC [1, 17]: 16384
Relative MIC [1, 18]: 8192
Relative MIC [1, 19]: 16384
Relative MIC [1, 20]: 16384
Relative MIC [1, 21]: 8192
Relative MIC [1, 22]: 65536
Relative MIC [1, 23]: 65536
Relative MIC ([1]; Klebsiella pneumoniae ATCC 700603 (KP-MDR), evolved line 2): 64
Relative MIC ([1]; Klebsiella pneumoniae ATCC 700603 (KP-MDR), evolved line 3): 16
Relative MIC ([1]; Klebsiella pneumoniae ATCC 700603 (KP-MDR), evolved line 4): 32
Relative MIC ([1]; Klebsiella pneumoniae ATCC 700603 (KP-MDR), evolved line 5): 32
Relative MIC ([1]; Klebsiella pneumoniae ATCC 700603 (KP-MDR), evolved line 6): 128
Relative MIC ([1]; Klebsiella pneumoniae ATCC 700603 (KP-MDR), evolved line 7): 128
Relative MIC ([1]; Klebsiella pneumoniae ATCC 700603 (KP-MDR), evolved line 8): 64
Relative MIC ([1]; Klebsiella pneumoniae ATCC 700603 (KP-MDR), evolved line 9): 64
Relative MIC ([1]; Klebsiella pneumoniae ATCC 700603 (KP-MDR), evolved line 10): 64
MIC of ancestor [2, 24]: 0.0625 mg/L
MIC of ancestor [2, 25]: 0.0625 mg/L
MIC [2, 24]: 0.0625 mg/L
MIC [2, 26]: 8 mg/L
MIC of ancestor ([3]; P. aeruginosa LESB 58 (PA-MDR), sheet fig 2a): 2 mg/L
MIC of ancestor [3, 27]: 0.0156 mg/L
MIC of ancestor ([3]; Pseudomonas aeruginosa LESB 58 (PA-MDR)): 2 mg/L
MIC [3, 28]: < 0.0312 mg/L
MIC [3, 29]: 2 mg/L

C[C@H]1c2cccc(O)c2C(=O)C2=C(O)[C@]3(O)C(=O)C(C(N)=O)=C(O)[C@@H](N(C)C)[C@@H]3[C@@H](O)[C@@H]21 [Doxycycline]
Relative MIC [1, 4]: 32
Relative MIC [1, 5]: 64
Relative MIC [1, 6]: 32
Relative MIC [1, 7]: 256
Relative MIC [1, 8]: 256
Relative MIC [1, 9]: 256
Relative MIC [1, 10]: 256
Relative MIC [1, 11]: 256
Relative MIC [1, 12]: 256
Relative MIC ([1]; KP-SEN (ATCC 10031), evolved line 10, MIC of evolved line / MIC of ancestor): 128
Relative MIC (log10) ([1]; KP-SEN (Klebsiella pneumoniae ATCC 10031), evolved line 4 adapted to the named antibiotic): 2.408
Relative MIC (log10) ([1]; KP-SEN (Klebsiella pneumoniae ATCC 10031), evolved line 5 adapted to the named antibiotic): 2.408
Relative MIC (log10) ([1]; KP-SEN (Klebsiella pneumoniae ATCC 10031), evolved line 6 adapted to the named antibiotic): 2.408
Relative MIC (log10) [1, 13]: 2.408
Relative MIC (log10) [1, 14]: 2.408
Relative MIC [1, 15]: 32
Relative MIC [1, 16]: 64
Relative MIC [1, 17]: 32
Relative MIC [1, 18]: 256
Relative MIC [1, 19]: 256
Relative MIC [1, 20]: 256
Relative MIC [1, 21]: 256
Relative MIC [1, 22]: 256
Relative MIC [1, 23]: 256
Relative MIC ([1]; Klebsiella pneumoniae ATCC 10031 (KP-SEN), evolved line 10): 128
MIC of ancestor [2, 24]: 0.25 mg/L
MIC of ancestor [2, 25]: 0.25 mg/L
MIC [2, 24]: 0.25 mg/L
MIC [2, 26]: 8 mg/L
MIC of ancestor ([3]; P. aeruginosa ATCC BAA 3107 (PA-SEN), sheet fig 2a): 4 mg/L
MIC of ancestor [3, 27]: 4 mg/L
MIC [3, 28]: 4 mg/L
MIC [3, 29]: 32 mg/L

Reference: article PMC11845477, “Exploring the principles behind antibiotics with limited resistance” (Nature Communications, 2025)
